Where “and” joins values, the source holds several entries; their conditions need not be identical. Identical values can stand only once.
Assays:
[1] = system: liver, kidney, lung; experiment: Body and organ weights, macroscopic and histological analysis 10 weeks post NDMA treatment; type: in vivo, gptΔ C57BL/6J mice
Description: (§1) Most experiments utilized C57BL/6J gptΔ transgenic mice ([49],[50]), a gift from T. Nohmi. Some experiments used RaDR^R/R;gpt^g/g;Mgmt^−/− mice, which were created by crossing RaDR^R/R;gpt^g/gmice ([37]) with Mgmt^−/− mice ([51]). NDMA was synthesized and characterized as previously described ([52]) (Fig. S1). […] The first dose (3.5 mg/kg in 10 μl) was administered at 8 days of age, and the second dose (7 mg/kg in 20 μl) was administered at 15 days of age. Vehicle treated mice were administered equivalent volumes of saline. Mice were euthanized at ten weeks post-injection by CO2 inhalation. Both male and female mice were used in all experimental groups (n = 5) in all mouse experiments.
Sections of kidney and liver from mice ten weeks post treatment were fixed in 10% buffered formalin, embedded in paraffin, and sectioned at 5 μm thickness, stained with hematoxylin and eosin (H&E) by the MIT Division of Comparative Medicine Comparative Pathology Laboratory. H&E-stained sections of liver and kidney were scored by a Board-certified veterinary pathologist blinded to sample identity. Sections of liver were evaluated for the presence of hepatocellular degeneration (cell swelling with cytoplasmic alteration), fibrosis, and lipidosis using distribution-based ordinal scoring: 0 = normal, 1, uncommon detection in < 5% of liver fields (200×); 2, detectable in up to 5–20% of liver fields; 3, detectable in up to 20–65% of liver fields; 4, detectable in >65% of liver fields. The following criteria were used for scoring hepatic inflammation, necrosis, nuclear enlargement (karyomegaly), extramedullary hematopoiesis, Kupffer cell hyperplasia, Ito cell hyperplasia, and bile duct hyperplasia: 0 = normal; 1 = minimal (1–5 foci), 2 = mild (6–12 foci), 3 = moderate (13–18 foci), 4 = severe (>18 foci) (adapted from ([54])). A total inflammation score for each liver was generated by combining individual scores of portal, midzonal, and centrilobular inflammation from each submitted section. Sections of kidney were evaluated for the presence of inflammation, glomerulonephropathy, tubular necrosis, tubular degeneration, tubular regeneration, tubular casts and interstitial fibrosis. Slides were examined using an Olympus BX41 microscope attached with an iKona digital camera and photographed.

[2] = system: gpt reporter gene; type: in vivo, RaDR^R/R;gpt^g/g;Mgmt^−/− mice; conditions: liver, NDMA-treated Mgmt−/− vs NDMA-treated WT
Description: as §1
The gptΔ assay is the technology traditionally used with the gptΔ mouse to probe for small mutations in the 459 bp gpt transgene, of which approximately 160 copies exist in the mouse diploid genome ([50]). […]
The λ-EG10 phage was packaged in vitro from genomic DNA using a Transpack packaging extract (Agilent Technologies) and then transfected into E. coli YG6020 expressing Cre-recombinase, generating a 6.4 kb plasmid carrying the gpt and chloramphenicol acetyltransferase genes. […] The mutant frequency of each group was calculated (ratio of total 6-TG-resistant colonies to the average of chloramphenicol resistant colonies). The samples were processed and analyzed in a blinded fashion. […]

[3] = system: gpt reporter gene; type: in vivo, C57BL/6J gptΔ transgenic mice
Description: as §1
The gptΔ assay is the technology traditionally used with the gptΔ mouse to probe for small mutations in the 459 bp gpt transgene, of which approximately 160 copies exist in the mouse diploid genome ([50]). The gpt gene, which is not expressed in the mammalian cells, is contained in a λ-EG10 viral cassette that can be recovered ex vivo through a lambda packaging reaction.
The λ-EG10 phage was packaged in vitro from genomic DNA using a Transpack packaging extract (Agilent Technologies) and then transfected into E. coli YG6020 expressing Cre-recombinase, generating a 6.4 kb plasmid carrying the gpt and chloramphenicol acetyltransferase genes. These bacteria were cultured on selective media containing chloramphenicol (25 μg/ml, Sigma-Aldrich) and 6-TG (25 μg/ml, Sigma-Aldrich) or chloramphenicol alone. 6-TG resistance was confirmed by regrowth of colonies on plates containing chloramphenicol and 6-TG. The mutant frequency of each group was calculated (ratio of total 6-TG-resistant colonies to the average of chloramphenicol resistant colonies). The samples were processed and analyzed in a blinded fashion.
In this study, the gptΔ assay was performed on several tissues isolated from the mouse experiments. Specifically, the liver, kidneys, and lungs were collected at ten weeks following the second NDMA injection, flash frozen in liquid nitrogen, and stored at −80°C until analysis. Genomic DNA was extracted from ∼25 mg of liver tissue, one kidney, and whole lungs using the RecoverEase DNA Isolation Kit (Agilent Technologies).

[4] = system: human; set-up: method as in PMID 21141240; conditions: cited from earlier work
[5] = system: C57BL/6J mice; set-up: method as in PMID 9500198; conditions: cited from earlier work
[6] = C57BL/6J male mice, neonatal model

CN(C)N=O [NDMA, N-nitrosodimethylamine]
macroscopic changes in organs ([1]; 10 weeks post treatment): not observed | liver histology: hepatocellular degeneration ([1]; H&E, P = 0.0079): multifocal areas of periacinar (centrilobular to midzonal) hepatocellular degeneration | liver histology: nuclear enlargement ([1]; H&E, P = 0.0079): karyomegaly | body weights vs vehicle controls ([1]; at euthanasia, 10 weeks post treatment): no difference | lung-to-body weight ratio ([1]; females): increased | kidney-to-body weight ratio ([1]; males): increased | liver-to-body weight ratio ([1]; males): decreased significantly | enhanced mutant frequency in Mgmt−/− vs wild-type mice, females ([2]; females): 3 fold | enhanced mutant frequency in Mgmt−/− vs wild-type mice, males ([2]; males): 4 fold | elevated mutation frequency, kidney ([3]; kidney, 10 weeks after neonatal NDMA 10.5 mg/kg total i.p., vs controls): ~2 fold | change in mutant frequencies, kidney, males and females ([3]; kidneys vs controls, only males significantly increased (P = 0.0079)): approximate doubling | elevated mutation frequency, liver ([3]; liver, 10 weeks after neonatal NDMA 10.5 mg/kg total i.p., vs controls): ~35 fold | increase in mutant frequency, liver, females ([3]; livers of females vs controls, 10 weeks post-exposure, P = 0.0079): ~45 fold | increase in mutant frequency, liver, males ([3]; livers of males vs controls, 10 weeks post-exposure, P = 0.0079): ~30 fold | elevated mutation frequency, lung ([3]; lung, 10 weeks after neonatal NDMA 10.5 mg/kg total i.p., vs controls): ~4 fold and > 4 fold | IARC classification [4]: probable (Group 2A) human carcinogen | incidence of hepatic tumors [5, 6]: ~80% | incidence of lung tumors [5, 6]: 7% | maximum tolerated dose ([5]; total dose, i.p., neonatal mice): 10.5 mg/kg
